Species: Rattus norvegicus
Test: Open TG-GATES - Regimen: Daily Repeat
Assay type: toxicity, organism-based, Sprague-Dawley
Design: regimen Daily Repeat, gender Male, age 6 weeks
Details: in vivo, iv, route intravenous injection; for KIDNEY_L / KIDNEY_R / KIDNEY_TOTAL: tissue Kidney; for LIVER: tissue Liver; for ALP / ALT / AST / CRE / DBIL / GLC / IP / K / LDH / PL / RALB / TBIL / TC / TG / TP / gamma-GTP / Na / Ca / BUN: tissue Plasma
[1] = 3 mg/kg, 72 h, dose level Middle, time 3 day
[2] = 3 mg/kg, 72 h, tissue Blood, dose level Middle, time 3 day
[3] = 3 mg/kg, […], dose level Middle, time 7 day
[4] = 3 mg/kg, […], dose level Middle, time 14 day
[5] = 3 mg/kg, […], dose level Middle, time 28 day
[6] = 3 mg/kg, […], tissue Blood, dose level Middle, time 7 day
[7] = 3 mg/kg, […], tissue Blood, dose level Middle, time 14 day
[8] = 3 mg/kg, […], tissue Blood, dose level Middle, time 28 day
[9] = 10 mg/kg, 72 h, dose level High, time 3 day
[10] = 10 mg/kg, 72 h, tissue Blood, dose level High, time 3 day
[11] = 10 mg/kg, […], dose level High, time 7 day
[12] = 10 mg/kg, […], dose level High, time 14 day
[13] = 10 mg/kg, […], dose level High, time 28 day
[14] = 10 mg/kg, […], tissue Blood, dose level High, time 7 day
[15] = 10 mg/kg, […], tissue Blood, dose level High, time 14 day
[16] = 10 mg/kg, […], tissue Blood, dose level High, time 28 day

Sequence: CARBOPLATIN
- TERMINAL_BW [1]: 220.6 g
- APTT [2]: 24.1 s
- Bas [2]: 0%
- Eos [2]: 1.2%
- Fbg [2]: 324.4 mg/dL
- Ht [2]: 41.2%
- Lym [2]: 74.6%
- MCHC [2]: 32.6%
- MCV [2]: 62.7 fL
- Mono [2]: 3%
- Neu [2]: 20.6%
- PT [2]: 16.5 s
- Plat [2]: 127.4 x10_4/uL
- RBC [2]: 657.4 x10_4/ul
- Ret [2]: 4%
- WBC [2]: 89.9 x10_2/uL
- KIDNEY_L [1]: 0.9 g
- KIDNEY_R [1]: 0.9 g
- KIDNEY_TOTAL [1]: 1.9 g
- LIVER [1]: 9.8 g
- ALP [1]: 1530.2 IU/L
- ALT [1]: 43 IU/L
- AST [1]: 74.8 IU/L
- CRE [1]: 0.2 mg/dL
- DBIL [1]: 0 mg/dL
- GLC [1]: 173.6 mg/dL
- IP [1]: 7.1 mg/dL
- K [1]: 4.7 meq/L
- LDH [1]: 185.8 IU/L
- PL [1]: 129.2 mg/dL
- RALB [1]: 3.1 g/dL
- TBIL [1]: 0.004 mg/dL
- TC [1]: 65 mg/dL
- TG [1]: 104.6 mg/dL
- TP [1]: 5.5 g/dL
- gamma-GTP [1]: 1.4 IU/L
- TERMINAL_BW [3]: 244.7 g
- TERMINAL_BW [4]: 304.5 g
- TERMINAL_BW [5]: 349.4 g
- APTT [6]: 23.6 s
- Bas [6]: 0%
- Eos [6]: 0.8%
- Fbg [6]: 296.2 mg/dL
- MCHC [6]: 32.4%
- MCV [6]: 62.2 fL
- Mono [6]: 2.4%
- Neu [6]: 16.6%
- Plat [6]: 130.4 x10_4/uL
- RBC [6]: 649.2 x10_4/ul
- Ret [6]: 4.6%
- WBC [6]: 97.3 x10_2/uL
- APTT [7]: 25.4 s
- Bas [7]: 0%
- Eos [7]: 0.6%
- Fbg [7]: 327 mg/dL
- Hb [7]: 14 g/dL
- Ht [7]: 41.1%
- Lym [7]: 86%
- MCHC [7]: 34%
- MCV [7]: 61.4 fL
- Mono [7]: 3.2%
- Neu [7]: 9.2%
- Plat [7]: 119.2 x10_4/uL
- RBC [7]: 670 x10_4/ul
- Ret [7]: 2.8%
- WBC [7]: 100.3 x10_2/uL
- APTT [8]: 26.7 s
- Bas [8]: 0%
- Eos [8]: 0.8%
- Fbg [8]: 332.2 mg/dL
- Ht [8]: 42.1%
- Lym [8]: 83%
- MCH [8]: 19 pg
- MCHC [8]: 35.1%
- MCV [8]: 54.2 fL
- Mono [8]: 2.8%
- Plat [8]: 118.9 x10_4/uL
- RBC [8]: 777.6 x10_4/ul
- Ret [8]: 1.9%
- WBC [8]: 87.9 x10_2/uL
- KIDNEY_L [3]: 1.1 g
- KIDNEY_R [3]: 1.1 g
- KIDNEY_TOTAL [3]: 2.1 g
- KIDNEY_L [4]: 1.3 g
- KIDNEY_R [4]: 1.3 g
- KIDNEY_TOTAL [4]: 2.5 g
- KIDNEY_L [5]: 1.3 g
- KIDNEY_R [5]: 1.3 g
- KIDNEY_TOTAL [5]: 2.6 g
- LIVER [3]: 11.2 g
- LIVER [4]: 13.5 g
- LIVER [5]: 13.9 g
- ALP [3]: 1757.2 IU/L
- ALT [3]: 40.6 IU/L
- AST [3]: 82.6 IU/L
- CRE [3]: 0.2 mg/dL
- DBIL [3]: 0 mg/dL
- GLC [3]: 169.6 mg/dL
- IP [3]: 7 mg/dL
- K [3]: 4.7 meq/L
- LDH [3]: 186 IU/L
- Na [3]: 140 meq/L
- PL [3]: 143 mg/dL
- RALB [3]: 3.1 g/dL
- TBIL [3]: 0.006 mg/dL
- TC [3]: 70.4 mg/dL
- TG [3]: 110 mg/dL
- TP [3]: 5.6 g/dL
- gamma-GTP [3]: 1.6 IU/L
- ALP [4]: 1299.2 IU/L
- ALT [4]: 41.4 IU/L
- AST [4]: 84.2 IU/L
- CRE [4]: 0.2 mg/dL
- Ca [4]: 11 mg/dL
- DBIL [4]: 0 mg/dL
- GLC [4]: 170.4 mg/dL
- IP [4]: 6.8 mg/dL
- K [4]: 4.4 meq/L
- LDH [4]: 147 IU/L
- PL [4]: 148 mg/dL
- RALB [4]: 3.2 g/dL
- TBIL [4]: 0.006 mg/dL
- TC [4]: 74.2 mg/dL
- TG [4]: 131.2 mg/dL
- TP [4]: 6 g/dL
- gamma-GTP [4]: 3.4 IU/L
- ALP [5]: 1001.8 IU/L
- ALT [5]: 40.6 IU/L
- AST [5]: 78 IU/L
- BUN [5]: 18 mg/dL
- CRE [5]: 0.2 mg/dL
- Ca [5]: 11 mg/dL
- DBIL [5]: 0 mg/dL
- GLC [5]: 179.6 mg/dL
- IP [5]: 6.1 mg/dL
- K [5]: 4.2 meq/L
- LDH [5]: 131 IU/L
- PL [5]: 134.2 mg/dL
- RALB [5]: 3.2 g/dL
- TBIL [5]: 0.004 mg/dL
- TC [5]: 72.4 mg/dL
- TG [5]: 96 mg/dL
- TP [5]: 6.3 g/dL
- gamma-GTP [5]: 2 IU/L
- TERMINAL_BW [9]: 210.3 g
- APTT [10]: 23.5 s
- Bas [10]: 0%
- Eos [10]: 1.2%
- Fbg [10]: 288 mg/dL
- Hb [10]: 13 g/dL
- Ht [10]: 39.9%
- Lym [10]: 85.8%
- MCHC [10]: 32.7%
- MCV [10]: 62.8 fL
- Mono [10]: 3.2%
- Neu [10]: 8.8%
- PT [10]: 16.4 s
- Plat [10]: 122.5 x10_4/uL
- RBC [10]: 635.4 x10_4/ul
- Ret [10]: 2.7%
- WBC [10]: 75.4 x10_2/uL
- KIDNEY_L [9]: 0.9 g
- KIDNEY_R [9]: 1 g
- KIDNEY_TOTAL [9]: 1.9 g
- LIVER [9]: 9.3 g
- ALP [9]: 1408.4 IU/L
- ALT [9]: 33.8 IU/L
- BUN [9]: 16.4 mg/dL
- CRE [9]: 0.2 mg/dL
- DBIL [9]: 0.002 mg/dL
- GLC [9]: 170.4 mg/dL
- IP [9]: 7 mg/dL
- K [9]: 4.6 meq/L
- Na [9]: 140.2 meq/L
- PL [9]: 129.6 mg/dL
- RALB [9]: 3.1 g/dL
- TBIL [9]: 0.008 mg/dL
- TC [9]: 63.2 mg/dL
- TG [9]: 84.4 mg/dL
- TP [9]: 5.5 g/dL
- gamma-GTP [9]: 1.4 IU/L
- TERMINAL_BW [11]: 215.5 g
- TERMINAL_BW [12]: 246.4 g
- TERMINAL_BW [13]: 260.5 g
- APTT [14]: 27.1 s
- Bas [14]: 0%
- Eos [14]: 0.8%
- Fbg [14]: 285.8 mg/dL
- Hb [14]: 13.7 g/dL
- Ht [14]: 41.4%
- Lym [14]: 83.6%
- MCV [14]: 62.3 fL
- Mono [14]: 4.8%
- Neu [14]: 9.6%
- PT [14]: 15.7 s
- Plat [14]: 124.5 x10_4/uL
- RBC [14]: 665.8 x10_4/ul
- Ret [14]: 1.5%
- WBC [14]: 46.7 x10_2/uL
- APTT [15]: 26.8 s
- Bas [15]: 0%
- Eos [15]: 0.4%
- Fbg [15]: 299.6 mg/dL
- Hb [15]: 14.1 g/dL
- Lym [15]: 80.8%
- MCHC [15]: 33.9%
- MCV [15]: 59.3 fL
- Mono [15]: 4.6%
- Plat [15]: 50.2 x10_4/uL
- RBC [15]: 701 x10_4/ul
- Ret [15]: 0.8%
- WBC [15]: 57.1 x10_2/uL
- APTT [16]: 25.4 s
- Bas [16]: 0%
- Eos [16]: 0%
- Fbg [16]: 275.2 mg/dL
- Hb [16]: 11.8 g/dL
- Ht [16]: 33.8%
- Lym [16]: 81%
- MCHC [16]: 34.8%
- MCV [16]: 55.8 fL
- Mono [16]: 3.6%
- PT [16]: 15.6 s
- Plat [16]: 66.5 x10_4/uL
- RBC [16]: 607.8 x10_4/ul
- Ret [16]: 3.1%
- WBC [16]: 60.4 x10_2/uL
- KIDNEY_L [11]: 0.9 g
- KIDNEY_R [11]: 1 g
- KIDNEY_TOTAL [11]: 1.9 g
- KIDNEY_L [12]: 1.1 g
- KIDNEY_R [12]: 1.1 g
- KIDNEY_TOTAL [12]: 2.2 g
- KIDNEY_L [13]: 1.2 g
- KIDNEY_R [13]: 1.2 g
- KIDNEY_TOTAL [13]: 2.4 g
- LIVER [11]: 8.8 g
- ALP [11]: 1401.8 IU/L
- ALT [11]: 41.4 IU/L
- AST [11]: 102 IU/L
- CRE [11]: 0.2 mg/dL
- DBIL [11]: 0.002 mg/dL
- GLC [11]: 170.8 mg/dL
- IP [11]: 7.3 mg/dL
- K [11]: 4.4 meq/L
- Na [11]: 140.4 meq/L
- PL [11]: 118.6 mg/dL
- RALB [11]: 3.2 g/dL
- TBIL [11]: 0.012 mg/dL
- TC [11]: 66 mg/dL
- TG [11]: 38.2 mg/dL
- TP [11]: 6 g/dL
- gamma-GTP [11]: 1 IU/L
- ALP [12]: 1127 IU/L
- ALT [12]: 48 IU/L
- AST [12]: 93.2 IU/L
- BUN [12]: 16.6 mg/dL
- CRE [12]: 0.2 mg/dL
- DBIL [12]: 0 mg/dL
- GLC [12]: 170.4 mg/dL
- IP [12]: 6.6 mg/dL
- K [12]: 4.5 meq/L
- LDH [12]: 161 IU/L
- PL [12]: 139.8 mg/dL
- RALB [12]: 3.2 g/dL
- TBIL [12]: 0.016 mg/dL
- TC [12]: 74.8 mg/dL
- TG [12]: 83.4 mg/dL
- TP [12]: 5.8 g/dL
- gamma-GTP [12]: 1.8 IU/L
- ALP [13]: 682.8 IU/L
- ALT [13]: 40 IU/L
- AST [13]: 97.8 IU/L
- BUN [13]: 22 mg/dL
- CRE [13]: 0.2 mg/dL
- DBIL [13]: 0.016 mg/dL
- GLC [13]: 170 mg/dL
- IP [13]: 6.2 mg/dL
- K [13]: 4.5 meq/L
- LDH [13]: 533 IU/L
- PL [13]: 127.8 mg/dL
- RALB [13]: 3 g/dL
- TBIL [13]: 0.052 mg/dL
- TC [13]: 78.6 mg/dL
- TG [13]: 48.8 mg/dL
- TP [13]: 6 g/dL
- gamma-GTP [13]: 1.8 IU/L
